Data reported in ChEMBL document CHEMBL4043070, “Isolation, Structure Elucidation, and Absolute Configuration of Syncarpic Acid-Conjugated Terpenoids from Rhodomyrtus tomentosa” (J Nat Prod, 2017).

Legend:
[1] = Cytotoxicity against human MCF7/DX cells incubated for 48 hrs by MTT assay; format: cell-based
[2] = Reversal of multidrug resistance in human MCF7/DX cells assessed as potentiation doxorubicin-induced cytotoxicity by measuring reduction in doxorubicin IC50 level at 30 uM incubated for 48 hrs by MTT assay relative to untreated control; format: functional
[3] = Reversal of multidrug resistance in human MCF7/DX cells assessed as potentiation doxorubicin-induced cytotoxicity by measuring reduction in doxorubicin IC50 level at 5 uM incubated for 48 hrs by MTT assay relative to untreated control; format: functional

Compound | IC50 [1] | fold change (FC) [2] | fold change (FC) [3]
CC(C)C[C@@H]1C[C@]2(CC[C@]3(C(C)C)C[C@H]23)OC2=C1C(=O)C(C)(C)C(=O)C2(C)C | > 30 µM | 1.2 | –
C=C[C@@]1(CCC=C(C)C)C[C@H](CC(C)C)C2=C(O1)C(C)(C)C(=O)C(C)(C)C2=O | > 30 µM | 10.1 | –
C=C[C@]1(CCC=C(C)C)C[C@@H](CC(C)C)C2=C(O1)C(C)(C)C(=O)C(C)(C)C2=O | > 30 µM | 7.4 | –
C=C[C@]1(CCC=C(C)C)C[C@H](CC(C)C)C2=C(O1)C(C)(C)C(=O)C(C)(C)C2=O | > 30 µM | 16.5 | –
C=C[C@@]1(CCC=C(C)C)C[C@@H](CC(C)C)C2=C(O1)C(C)(C)C(=O)C(C)(C)C2=O | > 30 µM | 4.7 | –
COc1ccc(CCN(C)CCCC(C#N)(c2ccc(OC)c(OC)c2)C(C)C)cc1OC (centres undefined) | – | – | 5.4
Cc1ccc2c(c1)[C@H](C(C)C)CC[C@]21C[C@H](CC(C)C)C2=C(O1)C(C)(C)C(=O)C(C)(C)C2=O | > 30 µM | 0.9 | –
CC(C)C[C@@H]1C[C@@]2(CC[C@]3(C(C)C)C[C@H]23)OC2=C1C(=O)C(C)(C)C(=O)C2(C)C | > 30 µM | 4.5 | –
CC(C)C[C@H]1C[C@]2(CC[C@]3(C(C)C)C[C@H]23)OC2=C1C(=O)C(C)(C)C(=O)C2(C)C | > 30 µM | 5.6 | –
CC(C)C[C@H]1C[C@@]2(CC[C@]3(C(C)C)C[C@H]23)OC2=C1C(=O)C(C)(C)C(=O)C2(C)C | > 30 µM | 1 | –
